Assay results from PubChem BioAssay (NCI).
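GI50: concentration for 50% inhibition of growth. Definition used: TGI = concentration required for complete inhibition of growth.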

Legend:
Assay in all cases: NCI anticancer screen, dose series, 384-well format
786-0 renal = test system: 786-0 renal
A498 renal = test system: A498 renal
A549 NSCLC = test system: A549 NSCLC
ACHN renal = test system: ACHN renal
BT-549 breast = test system: BT-549 breast
CAKI-1 renal = test system: CAKI-1 renal
CCRF-CEM leukemia = test system: CCRF-CEM leukemia
COLO 205 colon = test system: COLO 205 colon
DU-145 prostate = test system: DU-145 prostate
EKVX NSCLC = test system: EKVX NSCLC
HCC-2998 colon = test system: HCC-2998 colon
HCT-116 colon = test system: HCT-116 colon
HCT-15 colon = test system: HCT-15 colon
HL-60(TB) leukemia = test system: HL-60(TB) leukemia
HOP-62 NSCLC = test system: HOP-62 NSCLC
HOP-92 NSCLC = test system: HOP-92 NSCLC
HT29 colon = test system: HT29 colon
IGROV1 ovarian = test system: IGROV1 ovarian
K-562 leukemia = test system: K-562 leukemia
KM12 colon = test system: KM12 colon
LOX IMVI melanoma = test system: LOX IMVI melanoma
M14 melanoma = test system: M14 melanoma
MALME-3M melanoma = test system: MALME-3M melanoma
MCF7 breast = test system: MCF7 breast
MDA-MB-231 breast = test system: MDA-MB-231 breast
MDA-MB-435 melanoma = test system: MDA-MB-435 melanoma
MDA-MB-468 breast = test system: MDA-MB-468 breast
MOLT-4 leukemia = test system: MOLT-4 leukemia
NCI-H226 lung = test system: NCI-H226 lung
NCI-H23 lung = test system: NCI-H23 lung
NCI-H322M lung = test system: NCI-H322M lung
NCI-H460 NSCLC = test system: NCI-H460 NSCLC
NCI-H522 lung = test system: NCI-H522 lung
NCI/ADR-RES ovarian = test system: NCI/ADR-RES ovarian
OVCAR-3 ovarian = test system: OVCAR-3 ovarian
OVCAR-4 ovarian = test system: OVCAR-4 ovarian
OVCAR-5 ovarian = test system: OVCAR-5 ovarian
OVCAR-8 ovarian = test system: OVCAR-8 ovarian
PC-3 prostate = test system: PC-3 prostate
RPMI-8226 leukemia = test system: RPMI-8226 leukemia
RXF 393 renal = test system: RXF 393 renal
SF-268 CNS = test system: SF-268 CNS
SF-295 CNS = test system: SF-295 CNS
SF-539 CNS = test system: SF-539 CNS
SK-MEL-2 melanoma = test system: SK-MEL-2 melanoma
SK-MEL-28 melanoma = test system: SK-MEL-28 melanoma
SK-MEL-5 melanoma = test system: SK-MEL-5 melanoma
SK-OV-3 ovarian = test system: SK-OV-3 ovarian
SN12C renal = test system: SN12C renal
SNB-19 CNS = test system: SNB-19 CNS
SNB-75 CNS = test system: SNB-75 CNS
SR leukemia = test system: SR leukemia
SW-620 colon = test system: SW-620 colon
T-47D breast = test system: T-47D breast
TK-10 renal = test system: TK-10 renal
U251 glioblastoma = test system: U251 glioblastoma
UACC-257 melanoma = test system: UACC-257 melanoma
UACC-62 melanoma = test system: UACC-62 melanoma
UO-31 renal = test system: UO-31 renal

For `C=CC(=O)N1CC[C@@H](Oc2nc(Nc3ccc(N4CCC(N5CCN(C)CC5)CC4)cc3)c(C(N)=O)nc2CC)C1`, the GI50 ([…]-0 renal) was greater than 100 µM, the TGI (786-0 renal) was greater than 100 µM and the GI50 (A498 renal) was greater than 100 µM. For the same molecule, the TGI (A498 renal) was greater than 100 µM, the GI50 (A549 NSCLC) was greater than 100 µM and the TGI (A549 NSCLC) was greater than 100 µM. For the same molecule, the GI50 (ACHN renal) was greater than 100 µM, the TGI (ACHN renal) was greater than 100 µM and the GI50 (BT-549 breast) was greater than 100 µM. For the same molecule, the TGI (BT-549 breast) was greater than 100 µM, the GI50 (CAKI-1 renal) was greater than 100 µM and the TGI (CAKI-1 renal) was greater than 100 µM. For the same molecule, the GI50 (CCRF-CEM leukemia) was greater than 100 µM, the TGI (CCRF-CEM leukemia) was greater than 100 µM and the GI50 (COLO 205 colon) was greater than 100 µM. For the same molecule, the TGI (COLO 205 colon) was greater than 100 µM, the GI50 (DU-145 prostate) was greater than 100 µM and the TGI (DU-145 prostate) was greater than 100 µM. It also gave a GI50 (EKVX NSCLC) greater than 100 µM, a TGI (EKVX NSCLC) greater than 100 µM and a GI50 (HCC-2998 colon) greater than 100 µM. It also gave a TGI (HCC-2998 colon) greater than 100 µM, a GI50 (HCT-116 colon) greater than 100 µM and a TGI (HCT-116 colon) greater than 100 µM. The GI50 (HCT-15 colon) was greater than 100 µM, the TGI (HCT-15 colon) was greater than 100 µM and the GI50 (HL-60(TB) leukemia) was greater than 100 µM. The TGI (HL-60(TB) leukemia) was greater than 100 µM, the GI50 (HOP-62 NSCLC) was greater than 100 µM and the TGI (HOP-62 NSCLC) was greater than 100 µM. It also gave a GI50 (HOP-92 NSCLC) greater than 100 µM, a TGI (HOP-92 NSCLC) greater than 100 µM and a GI50 (HT29 colon) greater than 100 µM. The TGI (HT29 colon) was greater than 100 µM, the GI50 (IGROV1 ovarian) was greater than 100 µM and the TGI (IGROV1 ovarian) was greater than 100 µM. It also gave a GI50 (K-562 leukemia) greater than 88.9 µM, a TGI (K-562 leukemia) greater than 100 µM and a GI50 (KM12 colon) greater than 100 µM. For the same molecule, the TGI (KM12 colon) was greater than 100 µM, the GI50 (LOX IMVI melanoma) was greater than 100 µM and the TGI (LOX IMVI melanoma) was greater than 100 µM. The GI50 (M14 melanoma) was greater than 100 µM, the TGI (M14 melanoma) was greater than 100 µM and the GI50 (MALME-3M melanoma) was greater than 100 µM. The TGI (MALME-3M melanoma) was greater than 100 µM, the GI50 (MCF7 breast) was greater than 100 µM and the TGI (MCF7 breast) was greater than 100 µM. It also gave a GI50 (MDA-MB-231 breast) greater than 100 µM, a TGI (MDA-MB-231 breast) greater than 100 µM and a GI50 (MDA-MB-435 melanoma) greater than 100 µM. It also gave a TGI (MDA-MB-435 melanoma) greater than 100 µM, a GI50 (MDA-MB-468 breast) greater than 100 µM and a TGI (MDA-MB-468 breast) greater than 100 µM. For the same molecule, the GI50 (MOLT-4 leukemia) was greater than 100 µM, the TGI (MOLT-4 leukemia) was greater than 100 µM and the GI50 (NCI-H226 lung) was greater than 100 µM. It also gave a TGI (NCI-H226 lung) greater than 100 µM, a GI50 (NCI-H23 lung) greater than 100 µM and a TGI (NCI-H23 lung) greater than 100 µM. The GI50 (NCI-H322M lung) was greater than 100 µM, the TGI (NCI-H322M lung) was greater than 100 µM and the GI50 (NCI-H460 NSCLC) was greater than 100 µM. For the same molecule, the TGI (NCI-H460 NSCLC) was greater than 100 µM, the GI50 (NCI-H522 lung) was greater than 100 µM and the TGI (NCI-H522 lung) was greater than 100 µM. It also gave a GI50 (NCI/ADR-RES ovarian) greater than 100 µM, a TGI (NCI/ADR-RES ovarian) greater than 100 µM and a GI50 (OVCAR-3 ovarian) greater than 100 µM. It also gave a TGI (OVCAR-3 ovarian) greater than 100 µM, a GI50 (OVCAR-4 ovarian) greater than 100 µM and a TGI (OVCAR-4 ovarian) greater than 100 µM. For the same molecule, the GI50 (OVCAR-5 ovarian) was greater than 100 µM, the TGI (OVCAR-5 ovarian) was greater than 100 µM and the GI50 (OVCAR-8 ovarian) was greater than 100 µM. For the same molecule, the TGI (OVCAR-8 ovarian) was greater than 100 µM, the GI50 (PC-3 prostate) was greater than 100 µM and the TGI (PC-3 prostate) was greater than 100 µM. It also gave a GI50 (RPMI-8226 leukemia) greater than 100 µM, a TGI (RPMI-8226 leukemia) greater than 100 µM and a GI50 (RXF 393 renal) greater than 100 µM. It also gave a TGI (RXF 393 renal) greater than 100 µM, a GI50 (SF-268 CNS) greater than 100 µM and a TGI (SF-268 CNS) greater than 100 µM. The GI50 (SF-295 CNS) was greater than 100 µM, the TGI (SF-295 CNS) was greater than 100 µM and the GI50 (SF-539 CNS) was greater than 100 µM. It also gave a TGI (SF-539 CNS) greater than 100 µM, a GI50 (SK-MEL-2 melanoma) greater than 100 µM and a TGI (SK-MEL-2 melanoma) greater than 100 µM. The GI50 (SK-MEL-28 melanoma) was greater than 100 µM, the TGI (SK-MEL-28 melanoma) was greater than 100 µM and the GI50 (SK-MEL-5 melanoma) was greater than 100 µM. For the same molecule, the TGI (SK-MEL-5 melanoma) was greater than 100 µM, the GI50 (SK-OV-3 ovarian) was greater than 100 µM and the TGI (SK-OV-3 ovarian) was greater than 100 µM. It also gave a GI50 (SN12C renal) greater than 100 µM, a TGI (SN12C renal) greater than 100 µM and a GI50 (SNB-19 CNS) greater than 100 µM. The TGI (SNB-19 CNS) was greater than 100 µM, the GI50 (SNB-75 CNS) was greater than 100 µM and the TGI (SNB-75 CNS) was greater than 100 µM. For the same molecule, the GI50 (SR leukemia) was greater than 87.9 µM, the TGI (SR leukemia) was greater than 100 µM and the GI50 (SW-620 colon) was greater than 100 µM. It also gave a TGI (SW-620 colon) greater than 100 µM, a GI50 (T-47D breast) greater than 100 µM and a TGI (T-47D breast) greater than 100 µM. The GI50 (TK-10 renal) was greater than 100 µM, the TGI (TK-10 renal) was greater than 100 µM and the GI50 (U251 glioblastoma) was greater than 100 µM. For the same molecule, the TGI (U251 glioblastoma) was greater than 100 µM, the GI50 (UACC-257 melanoma) was greater than 100 µM and the TGI (UACC-257 melanoma) was greater than 100 µM. The GI50 (UACC-62 melanoma) was greater than 100 µM, the TGI (UACC-62 melanoma) was greater than 100 µM and the GI50 (UO-31 renal) was greater than 100 µM. For the same molecule, the TGI (UO-31 renal) was greater than 100 µM.
